Results on two compounds are retold here after article PMC2717050, “Evaluation of expression and function of the H^+/myo-inositol transporter HMIT” (BMC Cell Biology, 2009).

Experiment [1] has as its target T1, HMIT triple mutant (H+/myo-inositol transporter) (Rattus norvegicus, UniProt Q921A2).
T1 construct: gene Slc2a13; stop codon deleted, C-terminal V5-His; pcDNA3.1/V5-His-TOPO; transient in HEK293/HEK293T cells
T1 sequence (Q921A2 1-637): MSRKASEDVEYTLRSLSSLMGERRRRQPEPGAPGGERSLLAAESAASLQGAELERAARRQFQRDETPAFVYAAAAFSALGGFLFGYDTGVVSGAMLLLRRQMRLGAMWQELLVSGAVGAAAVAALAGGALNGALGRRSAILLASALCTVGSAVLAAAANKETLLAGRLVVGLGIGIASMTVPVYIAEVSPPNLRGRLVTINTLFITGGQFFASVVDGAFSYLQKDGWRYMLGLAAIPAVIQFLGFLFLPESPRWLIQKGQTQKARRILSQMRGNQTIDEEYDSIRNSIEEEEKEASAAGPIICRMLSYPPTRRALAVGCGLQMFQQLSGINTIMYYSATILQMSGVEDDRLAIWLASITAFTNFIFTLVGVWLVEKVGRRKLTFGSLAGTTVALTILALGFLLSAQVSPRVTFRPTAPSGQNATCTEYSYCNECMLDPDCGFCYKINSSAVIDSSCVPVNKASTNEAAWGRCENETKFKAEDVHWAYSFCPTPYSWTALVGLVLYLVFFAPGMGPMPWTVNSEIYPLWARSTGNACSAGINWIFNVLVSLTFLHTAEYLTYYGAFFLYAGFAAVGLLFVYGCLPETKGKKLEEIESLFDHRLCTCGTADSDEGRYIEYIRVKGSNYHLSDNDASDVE
Put plainly: [3H]-myo-inositol uptake in HEK293T cells. It counts as cell-based. The note with it: pH 6.0; 37 °C pre-incubation 10 min; 2 min uptake; non-selective inhibitor.

For experiment [2], the target named is T1, HMIT triple mutant (H+/myo-inositol transporter). Put plainly: whole-cell patch-clamp, inositol-evoked inward current. It counts as cell-based. The note with it: extracellular pH 5.2; room temperature; Hill slope 1.0; transiently transfected HEK293/HEK293T cells.

Consider `O=C(CCc1ccc(O)cc1)c1c(O)cc(O)cc1O[C@@H]1O[C@H](CO)[C@@H](O)[C@H](O)[C@H]1O` [phloridzin], for which the % inhibition (in general, how much of the control response was suppressed) at 1 mM in experiment [1] is 53 ± 1.4%.
On to `O[C@H]1[C@H](O)[C@@H](O)[C@H](O)[C@@H](O)[C@H]1O` [myo-inositol], for which the response in experiment [2] was half-maximal at 2.7 mM (EC50).
